SMILES strings stand for the structures.

Assay [1] has as its target T1, rat A1 AR (Rattus norvegicus, UniProt P25099).
T1 construct: A1 ARs of rat brain cortical membrane; from tissue; host or cells: rat brain cortex membranes
T1 sequence (P25099 1-326): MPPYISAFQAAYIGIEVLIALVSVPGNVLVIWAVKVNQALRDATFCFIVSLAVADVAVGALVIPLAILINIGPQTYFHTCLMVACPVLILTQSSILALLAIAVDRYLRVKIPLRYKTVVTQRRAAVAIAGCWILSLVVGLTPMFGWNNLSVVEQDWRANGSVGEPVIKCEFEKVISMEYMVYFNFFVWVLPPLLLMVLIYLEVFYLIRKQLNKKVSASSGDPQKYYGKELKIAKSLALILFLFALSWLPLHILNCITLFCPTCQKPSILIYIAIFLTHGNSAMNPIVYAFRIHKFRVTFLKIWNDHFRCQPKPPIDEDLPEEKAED
Briefly: Radioligand binding assay at rat A1 AR (rat brain cortex) vs. [^3H]CCPA. To be noted: rat (r); for Ki: rat brain cortex, n = 3; for inhibition at 1.5 µM: read-out: % inhibition of radioligand binding at indicated concentration, A1 vs. [^3H]CCPA, at 1,500 nM. Here is the method: (§1) Membrane preparations and radioligand binding assays at rat A1 (rat brain cortex) and rat A2A ARs (rat brain striatum) were performed as previously described (Ozola et al., [2003]; Alnouri et al., [2015]). For assays at human A1, A2A, A2B, and A3 ARs, CHO cell membranes expressing one of the human AR subtypes were used as previously reported (Klotz et al., [1998]; Alnouri et al., [2015]; De Filippo et al., [2016]).
(§2) The synthesized tetrahydropyrazino[2,1-f ]purinediones 13–20 were evaluated in radioligand binding assays for their affinity to A1 ARs of rat brain cortical membrane and to A2A ARs of rat brain striatal membrane preparations. Selected compounds were further investigated for their affinity to human A1 and A2A ARs recombinantly expressed in Chinese hamster ovary (CHO) cells. All compounds were additionally investigated for their affinity to human A2B and A3 ARs recombinantly expressed in CHO cells to determine their AR subtype selectivity. […] It is well known that all xanthine derivatives lacking a ribose moiety, including tricyclic compounds, can only block ARs, but never act as AR agonists; therefore, additional functional studies were not required. […] Potent MAO-B inhibitors were additionally investigated for inhibition of human MAO-A to assess their selectivity. Results are presented in Tables 1–6, and data of standard ligands are included for comparison.

The target of assay [2] is T2, rat A2A AR (Rattus norvegicus, UniProt P30543).
T2 construct: A2A ARs of rat brain striatal membrane preparations; from tissue; host or cells: rat brain striatum membranes
T2 sequence (P30543 whole entry): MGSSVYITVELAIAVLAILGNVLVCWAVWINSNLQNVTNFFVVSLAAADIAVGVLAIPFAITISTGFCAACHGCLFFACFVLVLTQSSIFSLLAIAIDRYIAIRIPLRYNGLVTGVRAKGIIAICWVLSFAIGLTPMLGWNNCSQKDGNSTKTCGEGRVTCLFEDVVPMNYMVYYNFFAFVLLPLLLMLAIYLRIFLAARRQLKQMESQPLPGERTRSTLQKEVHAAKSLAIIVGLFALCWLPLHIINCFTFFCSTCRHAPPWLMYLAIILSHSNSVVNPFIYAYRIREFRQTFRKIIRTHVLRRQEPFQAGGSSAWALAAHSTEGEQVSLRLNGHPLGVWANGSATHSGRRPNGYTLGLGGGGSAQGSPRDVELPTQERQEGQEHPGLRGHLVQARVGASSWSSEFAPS
Briefly: Radioligand binding assay at rat A2A AR (rat brain striatum) vs. [^3H]MSX-2. To be noted: rat (r); for % inhibition of radioligand binding at indicated concentration, A2A vs. [^3H]MSX-2: at 1,000 nM; for Ki: rat brain striatum, n = 3, read-out: Ki ± SEM, A2A vs. [^3H]MSX-2. Here is the method: as §1, §2

Assay [3] concerns the target T3, human A3 AR (Homo sapiens, UniProt P0DMS8).
T3 construct: expressed in transfected cells; host or cells: CHO cells
T3 sequence (P0DMS8 1-318): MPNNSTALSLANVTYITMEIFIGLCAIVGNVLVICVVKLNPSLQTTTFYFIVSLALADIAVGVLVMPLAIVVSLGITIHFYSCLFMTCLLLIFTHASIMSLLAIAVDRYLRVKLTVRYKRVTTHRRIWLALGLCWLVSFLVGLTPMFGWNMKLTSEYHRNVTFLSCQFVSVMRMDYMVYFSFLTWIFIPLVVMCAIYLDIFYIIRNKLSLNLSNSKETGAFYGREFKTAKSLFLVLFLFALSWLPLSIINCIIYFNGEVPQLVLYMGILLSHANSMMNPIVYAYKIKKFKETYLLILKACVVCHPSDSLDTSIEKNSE
Kind of assay: Radioligand binding assay at human A3 AR vs. [^3H]PSB-11. To be noted: for Ki: CHO cell membranes, n = 2 (n = 3 where marked a), read-out: Ki ± SEM, A3 vs. [^3H]PSB-11; for inhibition at 10 µM: at 10,000 nM, read-out: % inhibition of radioligand binding at indicated concentration, A3 vs. [^3H]PSB-11. As to the method:
as §1, §2

For assay [4], the target named is T4, recombinant human MAO-A (Homo sapiens, UniProt P21397).
T4 construct: purchased Sigma-Aldrich M7316; host or cells: baculovirus-infected insect cells
T4 sequence (P21397 1-527): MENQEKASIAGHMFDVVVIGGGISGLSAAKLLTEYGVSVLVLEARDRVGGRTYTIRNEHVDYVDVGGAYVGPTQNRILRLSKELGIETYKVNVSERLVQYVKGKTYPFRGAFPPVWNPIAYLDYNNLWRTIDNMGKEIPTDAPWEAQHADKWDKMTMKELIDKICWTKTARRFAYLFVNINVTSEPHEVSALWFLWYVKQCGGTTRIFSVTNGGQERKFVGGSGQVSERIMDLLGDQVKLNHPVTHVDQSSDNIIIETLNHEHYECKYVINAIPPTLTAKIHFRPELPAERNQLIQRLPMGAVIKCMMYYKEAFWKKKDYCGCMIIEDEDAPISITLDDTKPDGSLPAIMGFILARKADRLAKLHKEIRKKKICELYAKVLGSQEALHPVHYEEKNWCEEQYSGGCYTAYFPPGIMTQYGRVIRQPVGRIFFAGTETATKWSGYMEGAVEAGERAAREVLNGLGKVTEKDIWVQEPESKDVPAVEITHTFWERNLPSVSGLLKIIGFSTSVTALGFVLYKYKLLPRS
Briefly: Monoamine oxidase assay (Amplex Red), MAO-A. To be noted: for inhibition at 10 µM: at 10,000 nM, read-out: % inhibition at indicated concentration, Human MAO-A; for IC50: n = 3, read-out: IC50 ± SEM, Human MAO-A. Type of assay: biochemical. As to the method: (§3) The determination of MAO-A and MAO-B inhibition was performed using commercially available recombinant human MAO-A and MAO-B enzymes expressed in baculovirus-infected insects sells (Sigma-Aldrich, M7316 and M7441) applying the commercially available Amplex® Red monoamine oxidase assay kit (Invitrogen A12214). The assays were performed as previously described. The determination of rat MAO-B inhibition was performed using mitochondrial-enriched fractions from male Sprague Dawley rat livers. […]

The target in assay [5] is T5, human A2B AR (Homo sapiens, UniProt P29275).
T5 construct: expressed in transfected cells; host or cells: CHO cells
T5 sequence (P29275 1-332): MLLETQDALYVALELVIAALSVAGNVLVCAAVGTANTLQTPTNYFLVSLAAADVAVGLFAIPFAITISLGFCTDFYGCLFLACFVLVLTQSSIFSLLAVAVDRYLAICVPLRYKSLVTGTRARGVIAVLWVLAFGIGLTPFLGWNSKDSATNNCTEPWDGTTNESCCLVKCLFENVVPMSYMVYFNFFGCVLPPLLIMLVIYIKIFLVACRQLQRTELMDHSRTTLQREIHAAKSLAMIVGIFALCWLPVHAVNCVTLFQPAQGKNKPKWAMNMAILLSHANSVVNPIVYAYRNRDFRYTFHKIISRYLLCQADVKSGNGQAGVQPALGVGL
Kind of assay: Radioligand binding assay at human A2B AR vs. [^3H]PSB-603. To be noted: for Ki: CHO cell membranes, n = 2 (n = 3 where marked a), read-out: Ki ± SEM, A2B vs. [^3H]PSB-603; for inhibition at 1 µM: at 1,000 nM. As to the method:
as §1, §2

The target of assay [6] is T6, recombinant human MAO-B (Homo sapiens, UniProt P27338).
T6 construct: purchased Sigma-Aldrich M7441; host or cells: baculovirus-infected insect cells
T6 sequence (P27338 1-520): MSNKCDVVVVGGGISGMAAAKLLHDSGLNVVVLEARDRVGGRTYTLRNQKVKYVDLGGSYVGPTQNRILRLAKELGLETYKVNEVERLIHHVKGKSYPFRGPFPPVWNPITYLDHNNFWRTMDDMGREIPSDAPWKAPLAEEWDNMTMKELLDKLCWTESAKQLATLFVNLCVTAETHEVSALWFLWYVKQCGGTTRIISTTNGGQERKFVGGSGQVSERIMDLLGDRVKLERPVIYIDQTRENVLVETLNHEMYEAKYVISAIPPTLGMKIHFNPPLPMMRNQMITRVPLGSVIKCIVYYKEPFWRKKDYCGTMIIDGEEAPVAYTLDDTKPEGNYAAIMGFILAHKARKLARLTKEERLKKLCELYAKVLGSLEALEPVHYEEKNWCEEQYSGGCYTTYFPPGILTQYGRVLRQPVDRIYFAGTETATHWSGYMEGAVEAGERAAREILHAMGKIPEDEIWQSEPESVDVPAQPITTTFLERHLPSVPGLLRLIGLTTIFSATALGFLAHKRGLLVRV
Kind of assay: Monoamine oxidase assay (Amplex Red), MAO-B. Type of assay: biochemical. To be noted: for IC50: n = 3, read-out: IC50 ± SEM, Human MAO-B; for inhibition at 10 µM: at 10,000 nM (10 μM), read-out: % inhibition at indicated concentration, Human MAO-B. As to the method: as §3

Where [7] appears, read: read-out: % inhibition of radioligand binding at indicated concentration, A2B vs. [^3H]PSB-603.

The term Ki denotes the dissociation constant of the complex between target and ligand, obtained from inhibition or displacement. In general, IC50 refers to the concentration that gives 50% inhibition. In the case of `Cn1c(=O)[nH]c(=O)c2c1nc1n2CCN(Cc2ccccc2Br)C1` [Compound 13a, 8-(2-bromobenzyl)-1-methyl-6,7,8,9-tetrahydropyrazino[2,1-f]purine-2,4(1H,3H)-dione], the inhibition constant (Ki) in assay [1] is above 1.5 µM; in assay [2] it was above 1 µM; in assay [3] it was 14.7 µM; in assay [5], above 1 µM. The inhibition at 1.5 µM in assay [1] stood at 17%. In assay [2], the “% inhibition of radioligand binding at indicated concentration, A2A vs. [^3H]MSX-2” value (from here on “% inhibition of radioligand binding”) is listed as -23%. Also, the inhibition at 10 µM in assay [4] stood at 13%. The IC50 is above 10 µM in assay [4] and 4.53 µM in assay [6]. For the same molecule, the inhibition at 1 µM in assay [5] (setting [7]) was determined as 1%.
On to `CCn1c(=O)c2c(nc3n2CCN(Cc2ccc(F)c(C(F)(F)F)c2)C3)n(CC)c1=O` [Compound 15i, 1,3-diethyl-8-(4-fluoro-3-(trifluoromethyl)benzyl)-6,7,8,9-tetrahydropyrazino[2,1-f]purine-2,4(1H,3H)-dione], for which the Ki in assay [1] was above 1.5 µM; in assay [2], above 1 µM; in assay [3], above 10 µM; in assay [5] it was above 1 µM. For the same molecule, in assay [1], the inhibition at 1.5 µM amounted to 19%. Also, the “% inhibition of radioligand binding” value in assay [2] was 30%. For the same molecule, the inhibition at 10 µM in assay [3] is 36%; in assay [4], 8%. The IC50 in assay [4] was above 10 µM; in assay [6], 3.07 µM. Besides, the inhibition at 1 µM in assay [5] (setting [7]) amounted to 33%.
On to `Cn1c(=O)[nH]c(=O)c2c1nc1n2CCN(CCc2ccc(Cl)cc2Cl)C1` [Compound 13f, 8-(2,4-dichlorophenethyl)-1-methyl-6,7,8,9-tetrahydropyrazino[2,1-f]purine-2,4(1H,3H)-dione], for which the Ki is above 1.5 µM in assay [1], above 1 µM in assay [2], 17.2 µM in assay [3] and above 1 µM in assay [5]. Besides, in assay [1], the inhibition at 1.5 µM was determined as 5%. Besides, the “% inhibition of radioligand binding” value in assay [2] worked out at 19%. The inhibition at 10 µM in assay [4] worked out at 13%. Besides, the IC50 in assay [4] was above 10 µM; in assay [6], 2.88 µM. In assay [5] (setting [7]), the inhibition at 1 µM came to 1%.
In the case of `CCn1c(=O)c2c(nc3n2CCN(Cc2ccc(C(F)(F)F)cc2)C3)n(C)c1=O` [Compound 14f, 3-ethyl-1-methyl-8-(4-(trifluoromethyl)benzyl)-6,7,8,9-tetrahydropyrazino[2,1-f]purine-2,4(1H,3H)-dione], the Ki in assay [1] was above 1.5 µM; in assay [2], above 1 µM; in assay [3] it was 18.6 µM; in assay [5], above 0.1 µM. The inhibition at 1.5 µM in assay [1] came out at 9%. The “% inhibition of radioligand binding” value in assay [2] worked out at 7%. Further, the inhibition at 0.1 µM in assay [5] (at 100 nM, read-out: % inhibition of radioligand binding at indicated concentration, A2B vs. [^3H]PSB-603) was 1%. In assay [6], the inhibition at 10 µM worked out at 32%. In assay [6], the IC50 is above 10 µM.
With `CCn1c(=O)c2c(nc3n2CCN(Cc2cc(C(F)(F)F)cc(C(F)(F)F)c2)C3)n(CC)c1=O` [Compound 15q, 8-(3,5-bis(trifluoromethyl)benzyl)-1,3-diethyl-6,7,8,9-tetrahydropyrazino[2,1-f]purine-2,4(1H,3H)-dione], the Ki in assay [1] is above 1.5 µM; in assay [2] it was above 1 µM; in assay [3] it was above 10 µM; in assay [5], above 1 µM. In addition, the inhibition at 1.5 µM in assay [1] came out at 6%. For the same molecule, the “% inhibition of radioligand binding” value in assay [2] is 13%. Besides, the inhibition at 10 µM in assay [3] is 40%; in assay [6], 27%. Besides, the inhibition at 1 µM in assay [5] (setting [7]) was found to be 7%. Besides, the IC50 in assay [6] is above 10 µM.

For the origin of these results see PMC6028563, “Probing Substituents in the 1- and 3-Position: Tetrahydropyrazino-Annelated Water-Soluble Xanthine Derivatives as Multi-Target Drugs With Potent Adenosine Receptor Antagonistic Activity” (Frontiers in Chemistry, 2018).
